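Method: 48-hour compound exposure of cells in 96-well plates, five concentrations, linear interpolation of endpoints. The concentration for 50% growth inhibition is given as GI50.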 Activity calls are given as the source filed them. Rule as the data show it: active = GI50 up to about 1.1 µM and inactive = higher.

Among the test systems are MOLT-4; K562; LOX IMVI; NCI-H522; Hs-578T; OVCAR-4; PC-3; OVCAR-8; NCI-H460; SK-MEL-5; SNB-19; MDA-N; A549; SN12C; HCC 2998; SK-OV-3; SF-539; HOP-92; SR.
Common to all, as to test: DTP human tumour cell line panel, 48 h

With `Cc1ccc2c(=O)c(-c3nnc(N)s3)c[nH]c2n1`, the GI50 in the assay on MOLT-4, with K562, with LOX IMVI, with NCI-H522, in the assay on Hs-578T and with OVCAR-4 was > 100 µM (inactive) in each case. Further, the GI50 is > 100 µM (inactive) in the assay with PC-3; 42.2 µM (inactive) with OVCAR-8; > 100 µM (inactive) with NCI-H460; > 100 µM (inactive) in the assay with SK-MEL-5; > 100 µM (inactive) with SNB-19; > 100 µM (inactive) in the assay with MDA-N. In addition, the GI50 in the assay on A549 and in the assay with SN12C was > 100 µM (inactive) each time.
For `Oc1ccc[n+](Cc2ccccc2)c1`, the GI50 in the assay on MOLT-4, with K562, in the assay on LOX IMVI, in the assay on HCC 2998, in the assay with NCI-H522 and in the assay with Hs-578T was > 100 µM (inactive) in each case. Besides, the GI50 with PC-3, in the assay with OVCAR-8, in the assay with NCI-H460, in the assay with SK-OV-3, in the assay with SK-MEL-5 and in the assay on SNB-19 was > 100 µM (inactive) in each case. The GI50 in the assay with MDA-N, with A549, with SF-539 and in the assay with SN12C was > 100 µM (inactive) in each case.
On to `COc1ccc2c(C=O)c3n(c(=O)c2c1OC)CCc1cc2c(cc1-3)OCO2`, for which the GI50 in the assay on MOLT-4 was 4.59 µM (inactive); in the assay with HCC 2998 it was 14.2 µM (inactive); with NCI-H522, 30.4 µM (inactive); with Hs-578T, > 100 µM (inactive); with OVCAR-4, > 100 µM (inactive); with PC-3, 15.1 µM (inactive). Further, the GI50 in the assay with OVCAR-8 was 23.4 µM (inactive); with NCI-H460, 53.6 µM (inactive); with SK-OV-3 it was > 100 µM (inactive); with SK-MEL-5, 24 µM (inactive); in the assay on SNB-19, 76.4 µM (inactive); in the assay on MDA-N it was 20 µM (inactive). Moreover, the GI50 in the assay on A549 was 22.3 µM (inactive); in the assay on SF-539 it was > 100 µM (inactive); in the assay on SN12C, 41.3 µM (inactive); in the assay with HOP-92, 10.9 µM (inactive).
With `CN(C(=O)c1cc2c(s1)sc1c(=O)n(C)c3ccccc3c12)c1ccccc1`, the GI50 in the assay on MOLT-4 was 3.63 µM (inactive); in the assay with K562, 2.51 µM (inactive); with LOX IMVI, 18.5 µM (inactive); in the assay on HCC 2998, 4.66 µM (inactive); in the assay on NCI-H522, 4.41 µM (inactive); in the assay with OVCAR-4, 42.7 µM (inactive). Also, the GI50 was 4.68 µM (inactive) in the assay with PC-3; 11.2 µM (inactive) in the assay on OVCAR-8; 1.93 µM (inactive) in the assay with SR; 2.43 µM (inactive) in the assay on NCI-H460; 22.2 µM (inactive) with SK-OV-3; 3.56 µM (inactive) in the assay with SK-MEL-5. Besides, the GI50 in the assay on SNB-19 is 31.3 µM (inactive); in the assay on MDA-N it was 0.61 µM (active); in the assay on A549, 8.55 µM (inactive); in the assay on SF-539, 5.45 µM (inactive); with SN12C it was 34.8 µM (inactive); in the assay on HOP-92 it was 42.4 µM (inactive).
Regarding `COP(C)(=O)C(Cc1c[nH]c2ccccc12)NC(=O)OCc1ccccc1` (stereo not given), the GI50 in the assay on MOLT-4, in the assay on K562, with LOX IMVI, in the assay with HCC 2998, with Hs-578T and in the assay on OVCAR-4 was > 100 µM (inactive) throughout. The GI50 in the assay on PC-3, in the assay on OVCAR-8, in the assay with NCI-H460, with SK-OV-3, in the assay with SK-MEL-5 and with SNB-19 was > 100 µM (inactive) in each case. For the same molecule, the GI50 in the assay on MDA-N, in the assay on A549, with SF-539, with SN12C and with HOP-92 was > 100 µM (inactive) each time.
On to `CCOC(=O)c1cc(=O)c2ccnc3c2n1CCS3`, for which the GI50 with MOLT-4 was > 100 µM (inactive); in the assay with LOX IMVI, 57.4 µM (inactive); with NCI-H522, 22.7 µM (inactive); in the assay on Hs-578T, > 100 µM (inactive); with PC-3 it was > 100 µM (inactive); in the assay on OVCAR-8, > 100 µM (inactive). Also, the GI50 in the assay on NCI-H460 is > 100 µM (inactive); with SK-OV-3, > 100 µM (inactive); in the assay with SK-MEL-5, > 100 µM (inactive); in the assay with SNB-19, 50.2 µM (inactive); in the assay on MDA-N, > 100 µM (inactive); with A549 it was 69.8 µM (inactive). The GI50 in the assay on SF-539 is > 100 µM (inactive); in the assay with SN12C it was > 100 µM (inactive); in the assay with HOP-92, 66.4 µM (inactive).
In the case of `O=C(Cn1c(C(=O)/C=C/c2cccs2)nc2ccccc21)c1ccc(Cl)cc1`, the GI50 was 7.8 µM (inactive) in the assay on K562; 13.9 µM (inactive) in the assay with LOX IMVI; 14.8 µM (inactive) in the assay with HCC 2998; 12.8 µM (inactive) in the assay on Hs-578T; 14.6 µM (inactive) in the assay with OVCAR-4; 3.09 µM (inactive) in the assay with SR. Further, the GI50 in the assay on NCI-H460 is 10.5 µM (inactive); in the assay with SK-OV-3, 32.9 µM (inactive); in the assay on SK-MEL-5 it was 14.4 µM (inactive); in the assay on SNB-19, 25.5 µM (inactive); in the assay on MDA-N, 21.1 µM (inactive); in the assay on A549, 23.3 µM (inactive). The GI50 in the assay on SF-539 was 32.2 µM (inactive); in the assay with SN12C it was 16.7 µM (inactive); in the assay on HOP-92, 23.3 µM (inactive).
Consider `CNC(=O)c1ccccc1-[s+]1c2ccccc2c(=O)n1C` (stereo not given), for which the GI50 in the assay with MOLT-4, in the assay with K562, in the assay on LOX IMVI, with NCI-H522, in the assay on Hs-578T and in the assay with OVCAR-4 was > 100 µM (inactive) throughout. For the same molecule, the GI50 in the assay on PC-3, with OVCAR-8, with SK-MEL-5, with SNB-19, in the assay on MDA-N and in the assay on A549 was > 100 µM (inactive) each time. The GI50 in the assay with SF-539, in the assay with SN12C and with HOP-92 was > 100 µM (inactive) each time.
On to `O=c1[nH]c(=O)n(C2CC(O)C(CO)O2)cc1OCCCc1ccccc1` (stereo not given), for which the GI50 with MOLT-4, in the assay on K562, with LOX IMVI, with NCI-H522, in the assay on Hs-578T and with OVCAR-4 was > 100 µM (inactive) each time. The GI50 in the assay with PC-3, in the assay on OVCAR-8, in the assay with NCI-H460, with SK-OV-3, with SK-MEL-5 and in the assay with SNB-19 was > 100 µM (inactive) each time. Besides, the GI50 with MDA-N, in the assay with A549 and in the assay on SN12C was > 100 µM (inactive) throughout.
On to `CC(=O)Nc1cccc(N2C(=O)/C(=C\c3cccc(Oc4ccccc4)c3)S(=O)(=O)C2c2ccccc2)c1` (stereo not given), for which the GI50 in the assay with MOLT-4 is 16.1 µM (inactive); with K562 it was 26.7 µM (inactive); with LOX IMVI, 27.7 µM (inactive); in the assay on HCC 2998, > 100 µM (inactive); in the assay on NCI-H522, 69 µM (inactive); with OVCAR-4, 25.2 µM (inactive). Also, the GI50 is 64.3 µM (inactive) in the assay on PC-3; 37.1 µM (inactive) with OVCAR-8; 15.9 µM (inactive) with SR; > 100 µM (inactive) in the assay on NCI-H460; > 100 µM (inactive) in the assay on SK-OV-3; 76.6 µM (inactive) in the assay with SK-MEL-5. In addition, the GI50 with SNB-19 is > 100 µM (inactive); in the assay with MDA-N, 33.1 µM (inactive); in the assay on A549 it was > 100 µM (inactive); with SF-539, 36 µM (inactive); in the assay with SN12C it was > 100 µM (inactive); in the assay on HOP-92, 43.3 µM (inactive).
For the molecule `CN(C)CCCn1c(Cn2nc3ccccc3n2)nc2cc(C(F)(F)F)ccc21`, the GI50 in the assay with MOLT-4 is 19.1 µM (inactive); in the assay on K562, 16.5 µM (inactive); in the assay with LOX IMVI, 16.9 µM (inactive); in the assay on HCC 2998, 7.6 µM (inactive); in the assay with NCI-H522, 14.6 µM (inactive); in the assay on Hs-578T, 36.2 µM (inactive). The GI50 in the assay on OVCAR-4 was 33.4 µM (inactive); in the assay with PC-3 it was 31.6 µM (inactive); with OVCAR-8 it was 30.4 µM (inactive); in the assay on NCI-H460, 26.4 µM (inactive); in the assay on SK-OV-3 it was 16.9 µM (inactive); in the assay with SK-MEL-5, 16.6 µM (inactive). The GI50 in the assay with SNB-19 was 50.7 µM (inactive); in the assay with MDA-N, 18.8 µM (inactive); in the assay with A549, 41 µM (inactive); in the assay with SN12C it was 47.8 µM (inactive); with HOP-92, 8.71 µM (inactive).
Turning to `Cc1ccc(S(=O)(=O)c2c(O)c3ccccc3n(C)c2=O)cc1`, the GI50 in the assay on K562, in the assay with Hs-578T, with OVCAR-4, with PC-3, in the assay with OVCAR-8 and in the assay on NCI-H460 was > 100 µM (inactive) throughout. Further, the GI50 with SK-OV-3, in the assay with SK-MEL-5, in the assay with SNB-19, with MDA-N, with A549 and in the assay with SF-539 was > 100 µM (inactive) in each case. Further, the GI50 with SN12C and in the assay on HOP-92 was > 100 µM (inactive) each time.

Broadly, the GI50 is the concentration giving 50% growth inhibition.

The record behind these values is ChEMBL document CHEMBL1201862, “PubChem BioAssay data set” (2004).
